Laboratory results reported in US12606554B2, “Compounds and pharmaceutical compositions thereof for the treatment of diseases” (ONCO3R Therapeutics BV, priority 2019, dated 2026).

Tests used:
[1] = target: T1, SIK1 (Homo sapiens, UniProt P57059); assay: ADP-Glo kinase assay, SIK1; format: biochemical; settings: AMARA peptide 45 μM, 5 μM ATP, 120 min, read-out: SIM1 IC50
T1 construct: purchased Carna Biosciences 02-131
Excerpt: (§1) The ADP-Glo™ kinase assay is a luminescent technology assay which measures the ADP formed from a kinase reaction. In this specific study, the kinase reactions consisted of the phosphorylation of the AMARA peptide substrate (SignalChem, Cat #A11-58) by SIK1 (Carma Biosciences, Cat #02-131), SIK2 (ThermoFisher Scientific, Cat #PV4792) or SIK3 (SignalChem, Cat #S12-11G-100). In a second step the kinase reactions are terminated and all the remaining ATP is depleted. In a final step the ADP is converted into ATP and this newly synthesized ATP is measured by using a luciferase/luciferin reaction. The generated light is measured using an Envision plate reader, wherein the luminescent signal obtained positively correlates with the kinase activity.
(§2) The test compounds are prepared as a serial dilution of 10 point dose responses with ⅕ dilution steps in 100% DMSO starting from 2 mM highest concentration, diluted 1/20 in water and […] is transferred to the assay plates (PerkinElmer Inc., Cat #6007290).
(§3) 1% DMSO and 10 μM staurosporine final concentrations are used as negative and positive controls.
(§4) 2 μL enzyme-substrate mixture is added to the assay plates.
(§5) The reaction is started by adding 2 μL diluted ATP on the assay plates. Plates are centrifuged for a few seconds at 1000 rpm and gently shaken for 2 min followed by an incubation at RT for 120 min.
(§6) The reactions are stopped and the unconsumed ATP is depleted by adding 5 μL ADP-Glo Reagent (Promega, Cat #V9121B) to the reaction. The plates are centrifuged for a few seconds at 1000 rpm and incubated at RT for […] (ATP depletion).
(§7) The ADP is converted to ATP and luciferase and luciferin is introduced to detect ATP by adding 10 μL Kinase Detection Reagent (Promega, Cat #V913B+V914r) to the reaction. The plates are centrifuged for a few seconds at 1000 rpm and incubated at RT for 30 min (ADP detection).
(§8) Luminescence is measured on an Envision plate reader (PerkinElmer Inc.).
(§9) Raw data are generated following the read-out performed on the TopCount, plotted to generate dose response curves to calculate percentage inhibition (PIN) and average IC50 for each SIK homologue which are reported in the table below.

[2] = target: T2, SIK3 (Homo sapiens, UniProt Q9Y2K2); assay: ADP-Glo kinase assay, SIK3; format: biochemical; settings: AMARA peptide 45 μM, 5 μM ATP, 120 min
T2 construct: purchased SignalChem S12-11G-100
Excerpt: as §1, §2, §3, §4, §5, §6, §7, §8, §9

[3] = tested on: LPS-induced TNFα in monocyte-derived macrophages (MdM); assay: MdM assay: LPS-triggered TNFα (ELISA); format: cell-based; settings: Homo sapiens, Macrophage, LPS 200 ng/mL, supernatant after 20 h
Description: SIK inhibition inhibits TNFα and increases IL-10 release in LPS triggered monocyte-derived macrophages (MdM) and dendritic cells (MdDCs) (Clark et al. 2012; Sundberg et al. 2014; Ozanne et al. 2015). This assay evaluates illustrative compounds of the invention for their inhibition of LPS-induced TNFα and LPS triggered IL-10 secretion in monocyte-derived macrophages.
PBMCs are isolated from human blood samples (buffycoats). The buffy coat is aseptically transferred into a 50 mL Falcon tube, and diluted ½ in PBS. Falcon tubes are filled with 20 mL Lymphoprep™, on top of which 25 mL of the buffy coat is carefully added, tubes are centrifuged for 35 min at 400 g in temperature controlled centrifuge, without brake, at 25° C. PBMCs are aspirated from the white interface layer between sample and Lymphoprep™. PBMCs are washed five times in PBS. Cells are resuspended in RPMI 1640 complete medium supplemented with 10% FBS, 1% P/S, and cell density is determined using a hematologic analyzer (Sysmex XS-500i).
PBMCs are centrifuged at 300×g for 10 min and resuspended at a density of 1.0*10^7 cells/80 μL Miltenyi buffer (PBS, pH 7.4, 1% FBS, 2 mM EDTA).
Starting from this point of the protocol all steps are performed on ice. 20 μL of CD14+ micro-beads are added per 1.0*10^7 cells, the tube is mixed and incubated for 15 min in the fridge at 4° C. Cell suspension volume is adjusted to total volume of 100 mL using Miltenyi buffer, mixed gently and subsequently centrifuged for 10 min at 300×g. Supernatant is discarded and cell pellet is resuspended in 12 mL of Miltenyi buffer.
Four LS columns are placed in the MACS Separator (magnet) from Miltenyi Biotec, and are prewet by rinsing with 3 mL of MACS buffer per column. […]
The columns are removed from the magnets, and 5 mL of Miltenyi buffer are added to the column to flush out the CD14+ fraction by pushing the plunger into the column. […] The obtained cell pellet is resuspended in 10 mL RPMI w/o FBS, and cell density is determined using a hematologic analyser (Sysmex XS-500i). […]

T1 sequence (P57059 whole entry): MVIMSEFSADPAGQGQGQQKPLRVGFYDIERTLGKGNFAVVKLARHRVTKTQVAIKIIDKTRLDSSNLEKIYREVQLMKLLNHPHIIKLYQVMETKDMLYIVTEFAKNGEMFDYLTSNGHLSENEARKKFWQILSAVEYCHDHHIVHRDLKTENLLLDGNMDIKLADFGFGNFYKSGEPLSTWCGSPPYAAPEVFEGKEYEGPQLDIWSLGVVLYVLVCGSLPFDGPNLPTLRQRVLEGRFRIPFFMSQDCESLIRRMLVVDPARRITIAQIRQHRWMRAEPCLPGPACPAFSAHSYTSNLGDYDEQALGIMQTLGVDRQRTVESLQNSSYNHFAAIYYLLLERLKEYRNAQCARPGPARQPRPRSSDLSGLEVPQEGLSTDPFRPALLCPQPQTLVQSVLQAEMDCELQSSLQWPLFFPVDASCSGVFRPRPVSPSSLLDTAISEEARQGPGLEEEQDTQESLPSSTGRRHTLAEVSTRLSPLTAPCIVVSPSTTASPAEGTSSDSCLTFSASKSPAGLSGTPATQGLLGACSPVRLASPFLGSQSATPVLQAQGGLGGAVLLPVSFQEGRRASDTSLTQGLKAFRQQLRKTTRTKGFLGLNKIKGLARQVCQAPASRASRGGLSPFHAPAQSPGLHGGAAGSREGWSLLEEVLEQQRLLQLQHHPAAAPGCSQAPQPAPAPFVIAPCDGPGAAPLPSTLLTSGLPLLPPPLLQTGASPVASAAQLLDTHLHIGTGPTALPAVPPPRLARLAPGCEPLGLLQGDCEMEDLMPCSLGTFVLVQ
T2 sequence (Q9Y2K2 whole entry): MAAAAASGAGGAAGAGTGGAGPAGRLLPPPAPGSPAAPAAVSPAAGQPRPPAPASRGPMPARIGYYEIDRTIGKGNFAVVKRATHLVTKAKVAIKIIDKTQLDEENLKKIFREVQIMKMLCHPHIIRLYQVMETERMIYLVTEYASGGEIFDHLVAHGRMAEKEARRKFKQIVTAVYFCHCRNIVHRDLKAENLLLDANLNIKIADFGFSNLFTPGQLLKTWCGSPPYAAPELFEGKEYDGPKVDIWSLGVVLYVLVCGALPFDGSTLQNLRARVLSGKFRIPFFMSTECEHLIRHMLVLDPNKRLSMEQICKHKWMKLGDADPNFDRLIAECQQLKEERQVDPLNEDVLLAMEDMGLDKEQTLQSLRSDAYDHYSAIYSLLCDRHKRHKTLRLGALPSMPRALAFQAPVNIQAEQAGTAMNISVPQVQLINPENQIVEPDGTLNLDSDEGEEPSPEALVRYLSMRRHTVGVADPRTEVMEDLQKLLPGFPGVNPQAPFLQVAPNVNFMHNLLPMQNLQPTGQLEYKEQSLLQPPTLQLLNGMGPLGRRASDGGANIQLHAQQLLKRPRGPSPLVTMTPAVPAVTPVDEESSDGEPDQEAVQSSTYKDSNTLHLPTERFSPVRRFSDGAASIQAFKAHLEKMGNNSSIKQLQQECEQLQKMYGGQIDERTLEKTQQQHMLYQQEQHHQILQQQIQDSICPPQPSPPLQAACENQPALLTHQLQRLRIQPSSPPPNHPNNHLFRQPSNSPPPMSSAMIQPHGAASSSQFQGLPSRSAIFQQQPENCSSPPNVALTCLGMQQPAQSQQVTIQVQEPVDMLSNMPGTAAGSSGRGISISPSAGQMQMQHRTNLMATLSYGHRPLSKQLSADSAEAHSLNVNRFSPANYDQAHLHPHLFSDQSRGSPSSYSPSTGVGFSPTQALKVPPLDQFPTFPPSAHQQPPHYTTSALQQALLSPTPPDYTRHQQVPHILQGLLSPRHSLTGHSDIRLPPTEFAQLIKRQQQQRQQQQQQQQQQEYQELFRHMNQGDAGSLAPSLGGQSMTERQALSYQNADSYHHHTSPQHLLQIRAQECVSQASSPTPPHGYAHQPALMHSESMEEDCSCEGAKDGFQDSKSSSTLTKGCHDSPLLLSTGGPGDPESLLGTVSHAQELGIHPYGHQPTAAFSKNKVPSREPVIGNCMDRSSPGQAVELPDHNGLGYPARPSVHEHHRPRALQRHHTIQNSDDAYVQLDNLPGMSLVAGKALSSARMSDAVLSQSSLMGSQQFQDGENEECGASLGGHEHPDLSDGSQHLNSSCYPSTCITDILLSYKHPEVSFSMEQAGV

SMILES | IC50 [1] | IC50 [2] | EC50 [3]
COc1cc(-c2cnn3cc(OCCN4CCOCC4)ccc23)cc2c1C(=O)N(CC(F)(F)F)CC2 [Cpd 1, 8-methoxy-6-[6-(2-morpholinoethoxy)pyrazolo[1,5-a]pyridin-3-yl]-2-(2,2,2-trifluoroethyl)-3,4-dihydroisoquinolin-1-one] | 100 to 500 nM | 0.01 to 10 nM | 100 to 1000 nM
COc1cc(-c2cnn3cc(OC(C)(C)CO)ccc23)cc(OC(F)F)c1C(=O)N[C@@H]1C[C@@H]1F [Cpd 2, 2-(difluoromethoxy)-N-[(1R,2S)-2-fluorocyclopropyl]-4-[6-(2-hydroxy-1,1-dimethyl-ethoxy)pyrazolo[1,5-a]pyridin-3-yl]-6-methoxy-benzamide] | > 500 nM | 0.01 to 10 nM | 100 to 1000 nM
COc1cc(-c2cnn3cc(OC(C)(C)CN4CCOCC4)ccc23)cc(OC(F)F)c1C(=O)N[C@@H]1C[C@@H]1F [Cpd 3, 2-(difluoromethoxy)-4-[6-(1,1-dimethyl-2-morpholino-ethoxy)pyrazolo[1,5-a]pyridin-3-yl]-N-[(1R,2S)-2-fluorocyclopropyl]-6-methoxy-benzamide] | > 500 nM | 10 to 100 nM | 100 to 1000 nM
